The EC50 is the concentration at which the effect is half-maximal. The IC50 is the concentration that gives 50% inhibition.

This is an account of results in patent publication US8575091B1, “Amylin analogues and pharmaceutical compositions thereof” (Novo Nordisk A/S, priority 2012, dated 2013).

Test [1] concerns the target T1, human amylin receptor (amylin 3(a) receptor: human calcitonin receptor + RAMP-3) (Homo sapiens, UniProt O60896+P30988).
T1 construct: expressed in transfected cells
T1 sequence (P30988 25-474): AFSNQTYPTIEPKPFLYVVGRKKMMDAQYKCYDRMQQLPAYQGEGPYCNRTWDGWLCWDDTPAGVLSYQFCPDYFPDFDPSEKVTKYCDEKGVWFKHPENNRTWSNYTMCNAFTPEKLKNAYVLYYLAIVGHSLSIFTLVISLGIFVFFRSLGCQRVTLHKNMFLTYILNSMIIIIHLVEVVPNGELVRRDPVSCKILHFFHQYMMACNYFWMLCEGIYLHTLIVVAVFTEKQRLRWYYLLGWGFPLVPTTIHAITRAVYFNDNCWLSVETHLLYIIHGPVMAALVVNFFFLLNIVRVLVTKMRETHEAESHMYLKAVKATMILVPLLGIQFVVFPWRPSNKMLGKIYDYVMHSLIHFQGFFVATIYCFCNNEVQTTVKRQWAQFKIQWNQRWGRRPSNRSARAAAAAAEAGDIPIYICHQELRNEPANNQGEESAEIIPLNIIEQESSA
T1 sequence (O60896 24-148 partner): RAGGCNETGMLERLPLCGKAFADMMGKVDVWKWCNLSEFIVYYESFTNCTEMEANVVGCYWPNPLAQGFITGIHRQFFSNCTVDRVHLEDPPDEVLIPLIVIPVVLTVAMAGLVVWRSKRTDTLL
The experiment in a line: Assay (II)a functional assay, human amylin receptor (CRE luciferase, BHK cells). The conditions noted are these: for EC50: read-out: hAmylin-R funct. EC50. The format is cell-based.

For test [2], the target named is T2, human calcitonin receptor (Homo sapiens, UniProt P30988).
T2 construct: expressed in transfected cells
T2 sequence (P30988 25-474): T1 sequence (P30988 25-474)
The experiment in a line: Assay (II)a functional assay, human calcitonin receptor (CRE luciferase, BHK cells).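 Further: luminescence from a CRE-driven luciferase reporter, read by single photon counting after cells were exposed to test samples for 3 h at 37 °C under 5% CO2.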 The class given is cell-based. Conditions: read-out: hCTR funct. EC50.

The target of a further test is T3, human amylin receptor (Homo sapiens, UniProt O60896+P30988).
T3 construct: expressed in transfected cells
T3 sequence (P30988 25-474): T1 sequence (P30988 25-474)
T3 sequence (O60896 24-148 partner): T1 sequence (O60896 24-148 partner)
Description: Assay (V) binding to the human amylin receptor (SPA, 125I-rat amylin). The conditions noted are these: for IC50: human amylin receptor membranes, SPA, read-out: hAmylin-R bind IC50. The essentials:
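SPA competition binding on membranes from Amylin 3(a)/CRE-luc cells, 35 ng/μL membranes with 0.05 mg/well beads. Buffer 50 mM Hepes pH 7.4, 1 mM CaCl2, 5 mM MgCl2, 0.1% OA, 0.02% Tween20. IC50 from one-site competition fit as affinity measure.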

Test [3] addresses T2, human calcitonin receptor. The experiment in a line: Assay (VII) binding to the human calcitonin receptor (SPA, 125I-Calcitonin).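 Further: cell membranes coupled to SPA beads, competitive displacement read by scintillation counting, IC50 derived from a one-site competition fit as a measure of receptor affinity.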 The conditions noted are these: read-out: hCTR bind IC50.
Description: Membranes were prepared in the following way; the cells were rinsed with PBS and incubated with Versene for approximately 5 min before harvesting. The cells were flushed with PBS and the cell-suspension was centrifuged for 5 min at 1000 rpm. […] The resulting pellet was resuspended in buffer 2 and protein concentration was measured (BCA protein Assay, Pierce). The homogenate was kept cold during the whole procedure. The membranes were kept at −80° C. until use. Assay was performed in a 384 well Optiplate (PerkinElmer) in a total volume of 40 ul. Membranes were mixed with SPA beads. Final concentration of membranes 35 ng/μL final and Final concentration of SPA beads was 0.05 mg/well. Test-compounds were dissolved in DMSO and further diluted in assay buffer (50 mM Hepes, pH 7.4, 1 mM CaCl2, 5 mM MgCl2, 0.1% OA and 0.02% Tween20). […] Samples were analyzed on TopCounter™ (Packard). The IC50 was calculated using (one site binding competition analysis) GraphPad Prism5 as a measure of receptor affinity.
The mark [4] stands for this setting: Table 6, human functional selectivity (hCTR EC50 / hAmylin-R EC50).
Setting [5] is: Table 6a, human functional selectivity (hCTR EC50 / hAmylin-R EC50), at least 5.
[6] abbreviates: Table 6i, hCTR funct. EC50 / hAmylin-R funct. EC50.
[7] abbreviates: functional assay, human amylin receptor.
Where [8] appears, read: Table 6j, hCTR funct. EC50 / hAmylin-R funct. EC50.
Setting [9] is: Table 6k, hCTR funct. EC50 / hAmylin-R funct. EC50.
[10] abbreviates: human binding ratio, included for comparison.

Like-named read-outs stand apart in the source and are kept apart here. Numbered stars: 1 amine (or outer) side, 2 acyl side, 3 side chain; on linkers, the order of the positions; unused ones are H or OH. Bridge positions count the residues as written; N and C are the ends. Side chains are listed from the residue outwards. Peptide text beside a SMILES is read from it. * marks the point of attachment. C20 diacid = O=C(O)CCCCCCCCCCCCCCCCCCC(=O)*; γGlu = O=C(O)[C@H](CCC(=O)[*:2])N[*:1]

Take `CC[C@H](C)[C@H](NC(=O)[C@H](C)NC(=O)CNC(=O)[C@H](Cc1ccccc1)NC(=O)[C@H](CC(N)=O)NC(=O)[C@@H]1CCCN1C(=O)[C@H](CO)NC(=O)[C@H](CO)NC(=O)[C@H](Cc1c[nH]cn1)NC(=O)[C@H](CCCNC(=N)N)NC(=O)[C@H](CC(C)C)NC(=O)[C@H](Cc1ccccc1)NC(=O)[C@H](CCC(=O)O)NC(=O)[C@H](C)NC(=O)[C@H](CC(C)C)NC(=O)[C@H](CCCNC(=N)N)NC(=O)[C@H](CCC(N)=O)NC(=O)[C@@H](NC(=O)[C@H](C)NC(=O)[C@@H]1CSSC[C@H](NC(=O)[C@@H](N)CCCCNC(=O)CC[C@H](NC(=O)CC[C@H](NC(=O)CCCCCCCCCCCCCCCCCCC(=O)O)C(=O)O)C(=O)O)C(=O)N[C@@H](CC(N)=O)C(=O)N[C@@H]([C@@H](C)O)C(=O)N[C@@H](C)C(=O)N[C@@H]([C@@H](C)O)C(=O)N1)[C@@H](C)O)C(=O)N[C@@H](CC(C)C)C(=O)N[C@@H](CO)C(=O)N[C@@H](CO)C(=O)N[C@H](C(=O)N1CCC[C@H]1C(=O)N[C@H](C(=O)NCC(=O)N1CCC[C@H]1C(=O)N[C@@H](CCC(=O)O)C(=O)N[C@H](C(=O)N[C@@H](Cc1ccc(O)cc1)C(N)=O)[C@@H](C)O)C(C)C)[C@@H](C)O` [Example 121] (H-K([γGlu-γGlu-C20 diacid])CNTATCATQRLAEFLRHSSPNFGAILSSTPVGPETY-NH2; disulfide 2-7): the “Ratio hCT/hAmylin funct.” value in test [1] (setting [4]), in test [1] (setting [5]), in test [1] (setting [6]) and in test [1] (hCTR funct. EC50 divided by hAmylin-R funct. EC50) was 5.8 in each case. For the same compound, the EC50 came to 0.222 nM in test [1] (setting [7]) and 1.28 nM in test [2]. The results for the concentration for half-maximal inhibition (IC50) (on human amylin receptor; in test [3]) were 0.069 nM and 1.56 nM, respectively.

With `CC[C@H](C)[C@H](NC(=O)[C@H](C)NC(=O)CNC(=O)[C@H](Cc1ccccc1)NC(=O)[C@H](CC(N)=O)NC(=O)[C@@H]1CCCN1C(=O)[C@H](CO)NC(=O)[C@H](CO)NC(=O)[C@H](Cc1c[nH]cn1)NC(=O)[C@H](CCCNC(=N)N)NC(=O)[C@H](CC(C)C)NC(=O)[C@H](Cc1ccccc1)NC(=O)[C@H](CC(=O)O)NC(=O)[C@H](C)NC(=O)[C@H](CC(C)C)NC(=O)[C@H](CCCNC(=N)N)NC(=O)[C@H](CCC(N)=O)NC(=O)[C@@H](NC(=O)[C@H](C)NC(=O)[C@@H]1CSSC[C@H](NC(=O)[C@@H](N)CCCCNC(=O)CC[C@H](NC(=O)CC[C@H](NC(=O)CCCCCCCCCCCCCCCCCCC(=O)O)C(=O)O)C(=O)O)C(=O)N[C@@H](CC(N)=O)C(=O)N[C@@H]([C@@H](C)O)C(=O)N[C@@H](C)C(=O)N[C@@H]([C@@H](C)O)C(=O)N1)[C@@H](C)O)C(=O)N1CCC[C@H]1C(=O)N[C@@H](CO)C(=O)N[C@@H](CO)C(=O)N[C@H](C(=O)N[C@@H](CC(N)=O)C(=O)N[C@H](C(=O)NCC(=O)N1CCC[C@H]1C(=O)N[C@@H](CCC(=O)O)C(=O)N[C@H](C(=O)N[C@@H](Cc1ccc(O)cc1)C(N)=O)[C@@H](C)O)C(C)C)[C@@H](C)O` [Example 122] (H-K([γGlu-γGlu-C20 diacid])CNTATCATQRLADFLRHSSPNFGAIPSSTNVGPETY-NH2; disulfide 2-7), the “Ratio hCT/hAmylin funct.” value in test [1] (setting [4]), in test [1] (setting [5]), in test [1] (setting [8]) and in test [1] (setting [9]) was 5.3 throughout. Besides, the figures for the EC50 in test [1] (setting [7]) and in test [2] were 0.159 nM and 0.843 nM, respectively. Further, the values for the IC50 (at human amylin receptor; in test [3]) were 0.172 nM and 8.56 nM, respectively.

Turning to `CC[C@H](C)[C@H](NC(=O)[C@H](C)NC(=O)CNC(=O)[C@H](Cc1ccccc1)NC(=O)[C@H](CC(N)=O)NC(=O)[C@@H]1CCCN1C(=O)[C@H](CO)NC(=O)[C@H](CO)NC(=O)[C@H](Cc1c[nH]cn1)NC(=O)[C@H](CCCNC(=N)N)NC(=O)[C@H](CC(C)C)NC(=O)[C@H](Cc1ccccc1)NC(=O)[C@H](CCC(=O)O)NC(=O)[C@H](C)NC(=O)[C@H](CC(C)C)NC(=O)[C@H](CCCNC(=N)N)NC(=O)[C@H](CCC(N)=O)NC(=O)[C@@H](NC(=O)[C@H](C)NC(=O)[C@@H]1CSSC[C@H](NC(=O)[C@@H](N)CCCCNC(=O)CC[C@H](NC(=O)CC[C@H](NC(=O)CCCCCCCCCCCCCCCCCCC(=O)O)C(=O)O)C(=O)O)C(=O)N[C@@H](CC(N)=O)C(=O)N[C@@H]([C@@H](C)O)C(=O)N[C@@H](C)C(=O)N[C@@H]([C@@H](C)O)C(=O)N1)[C@@H](C)O)C(=O)N1CCC[C@H]1C(=O)N[C@@H](CO)C(=O)N[C@@H](CO)C(=O)N[C@H](C(=O)N[C@@H](CC(N)=O)C(=O)N[C@H](C(=O)NCC(=O)N1CCC[C@H]1C(=O)N[C@@H](CCC(=O)O)C(=O)N[C@H](C(=O)N1CCC[C@H]1C(N)=O)[C@@H](C)O)C(C)C)[C@@H](C)O` [Example 125] (H-K([γGlu-γGlu-C20 diacid])CNTATCATQRLAEFLRHSSPNFGAIPSSTNVGPETP-NH2; disulfide 2-7), the “Ratio hCT/hAmylin funct.” value in test [1] (setting [4]) is listed as 0.8. For the same compound, the results for the EC50 in test [1] (setting [7]) and in test [2] were 0.132 nM and 0.102 nM, respectively. Further, the figures for the IC50 (on human amylin receptor; in test [3]) were 0.533 nM and 0.226 nM, respectively. Also, on human amylin receptor (setting [10]), the “Ratio hCT/hAmylin binding” value was 0.4.

`CC[C@H](C)[C@H](NC(=O)[C@H](C)NC(=O)CNC(=O)[C@H](Cc1ccccc1)NC(=O)[C@H](CC(N)=O)NC(=O)[C@@H]1CCCN1C(=O)[C@H](CO)NC(=O)[C@H](CO)NC(=O)[C@H](Cc1c[nH]cn1)NC(=O)[C@H](CCCNC(=N)N)NC(=O)[C@H](CC(C)C)NC(=O)[C@H](Cc1ccccc1)NC(=O)[C@H](CCC(=O)O)NC(=O)[C@H](C)NC(=O)[C@H](CC(C)C)NC(=O)[C@H](CCCNC(=N)N)NC(=O)[C@H](CCC(N)=O)NC(=O)[C@@H](NC(=O)[C@H](C)NC(=O)[C@@H]1CSSC[C@H](NC(=O)[C@@H](N)CCCCNC(=O)CC[C@H](NC(=O)CC[C@H](NC(=O)CCCCCCCCCCCCCCCCCCC(=O)O)C(=O)O)C(=O)O)C(=O)N[C@@H](CC(N)=O)C(=O)N[C@@H]([C@@H](C)O)C(=O)N[C@@H](C)C(=O)N[C@@H]([C@@H](C)O)C(=O)N1)[C@@H](C)O)C(=O)N1CCC[C@H]1C(=O)N[C@@H](CO)C(=O)N[C@@H](CO)C(=O)N[C@H](C(=O)N[C@@H](CC(N)=O)C(=O)N[C@H](C(=O)NCC(=O)N1CCC[C@H]1C(=O)N[C@@H](CC(N)=O)C(=O)N[C@H](C(=O)N[C@@H](Cc1ccccc1)C(N)=O)[C@@H](C)O)C(C)C)[C@@H](C)O` [Example 127] (H-K([γGlu-γGlu-C20 diacid])CNTATCATQRLAEFLRHSSPNFGAIPSSTNVGPNTF-NH2; disulfide 2-7): the “Ratio hCT/hAmylin funct.” value in test [1] (setting [4]), in test [1] (setting [5]), in test [1] (setting [6]), in test [1] (setting [8]) and in test [1] (setting [9]) was 9.9 throughout. Also, the EC50 in test [1] (Table 6i, human amylin receptor functional) turned out to be 0.216 nM; in test [2], 2.14 nM. Further, the “Ratio hCT/hAmylin binding” value at human amylin receptor (Table 7b, human calcitonin receptor binding IC50 divided by human amylin receptor binding IC50) stood at 18.0; on human amylin receptor (setting [10]), 18.0. In addition, the IC50 amounted to 0.152 nM on human amylin receptor and 2.73 nM in test [3].

As for `CC[C@H](C)[C@H](NC(=O)[C@H](C)NC(=O)CNC(=O)[C@H](Cc1ccccc1)NC(=O)[C@H](CC(N)=O)NC(=O)[C@@H]1CCCN1C(=O)[C@H](CO)NC(=O)[C@H](CO)NC(=O)[C@H](Cc1c[nH]cn1)NC(=O)[C@H](CCCNC(=N)N)NC(=O)[C@H](CC(C)C)NC(=O)[C@H](Cc1ccccc1)NC(=O)[C@H](CCC(=O)O)NC(=O)[C@H](C)NC(=O)[C@H](CC(C)C)NC(=O)[C@H](CCCNC(=N)N)NC(=O)[C@H](CCC(N)=O)NC(=O)[C@@H](NC(=O)[C@H](C)NC(=O)[C@@H]1CSSC[C@H](NC(=O)[C@@H](N)CCCCNC(=O)CC[C@H](NC(=O)CCCCCCCCCCCCCCCCCCC(=O)O)C(=O)O)C(=O)N[C@@H](CC(N)=O)C(=O)N[C@@H]([C@@H](C)O)C(=O)N[C@@H](C)C(=O)N[C@@H]([C@@H](C)O)C(=O)N1)[C@@H](C)O)C(=O)N1CCC[C@H]1C(=O)N[C@@H](CO)C(=O)N[C@@H](CO)C(=O)N[C@H](C(=O)N[C@@H](CC(N)=O)C(=O)N[C@H](C(=O)NCC(=O)N[C@@H](CO)C(=O)N[C@@H](Cc1c[nH]cn1)C(=O)N[C@H](C(=O)N[C@@H](Cc1ccc(O)cc1)C(N)=O)[C@@H](C)O)C(C)C)[C@@H](C)O` [Example 128] (H-K([γGlu-C20 diacid])CNTATCATQRLAEFLRHSSPNFGAIPSSTNVGSHTY-NH2; disulfide 2-7), the EC50 in test [1] (setting [7]) was 0.425 nM; in test [2], 5.58 nM. In addition, the IC50 was 0.992 nM at human amylin receptor and 26.1 nM in test [3].
